From ChEMBL document CHEMBL1782045, “Discovery, synthesis, and investigation of the antitumor activity of novel piperazinylpyrimidine derivatives” (Eur J Med Chem, 2011)

Tests used:
TK-10 = test: Cytotoxicity against human TK10 cells after 48 hrs by sulforhodamine B assay; assay type: cell-based; details: tk-10, 48 h
OVCAR-8 = test: Cytotoxicity against human OVCAR8 cells after 48 hrs by sulforhodamine B assay; assay type: cell-based; details: ovcar-8, 48 h
SNB-75 [1] = test: Growth inhibition of human SNB75 cells after 48 hrs by sulforhodamine B assay; assay type: functional; details: SNB-75, 48 h
[2] = system: Receptor-type tyrosine-protein kinase FLT3 (Homo sapiens), P36888 [UNDEFINED MUTATION]; test: Binding affinity to human FLT3 ITD mutant at 10 uM incubated for 1 hr by kinase binding assay relative to untreated control
SW-620 = test: Cytotoxicity against human SW620 cells after 48 hrs by sulforhodamine B assay; assay type: cell-based; details: sw-620, 48 h
[3] = system: T1, Receptor-type tyrosine-protein kinase FLT3 (Homo sapiens), P36888 [K663Q]; test: Binding affinity to human FLT3 K663Q mutant at 10 uM incubated for 1 hr by kinase binding assay relative to untreated control
T1 sequence (whole entry): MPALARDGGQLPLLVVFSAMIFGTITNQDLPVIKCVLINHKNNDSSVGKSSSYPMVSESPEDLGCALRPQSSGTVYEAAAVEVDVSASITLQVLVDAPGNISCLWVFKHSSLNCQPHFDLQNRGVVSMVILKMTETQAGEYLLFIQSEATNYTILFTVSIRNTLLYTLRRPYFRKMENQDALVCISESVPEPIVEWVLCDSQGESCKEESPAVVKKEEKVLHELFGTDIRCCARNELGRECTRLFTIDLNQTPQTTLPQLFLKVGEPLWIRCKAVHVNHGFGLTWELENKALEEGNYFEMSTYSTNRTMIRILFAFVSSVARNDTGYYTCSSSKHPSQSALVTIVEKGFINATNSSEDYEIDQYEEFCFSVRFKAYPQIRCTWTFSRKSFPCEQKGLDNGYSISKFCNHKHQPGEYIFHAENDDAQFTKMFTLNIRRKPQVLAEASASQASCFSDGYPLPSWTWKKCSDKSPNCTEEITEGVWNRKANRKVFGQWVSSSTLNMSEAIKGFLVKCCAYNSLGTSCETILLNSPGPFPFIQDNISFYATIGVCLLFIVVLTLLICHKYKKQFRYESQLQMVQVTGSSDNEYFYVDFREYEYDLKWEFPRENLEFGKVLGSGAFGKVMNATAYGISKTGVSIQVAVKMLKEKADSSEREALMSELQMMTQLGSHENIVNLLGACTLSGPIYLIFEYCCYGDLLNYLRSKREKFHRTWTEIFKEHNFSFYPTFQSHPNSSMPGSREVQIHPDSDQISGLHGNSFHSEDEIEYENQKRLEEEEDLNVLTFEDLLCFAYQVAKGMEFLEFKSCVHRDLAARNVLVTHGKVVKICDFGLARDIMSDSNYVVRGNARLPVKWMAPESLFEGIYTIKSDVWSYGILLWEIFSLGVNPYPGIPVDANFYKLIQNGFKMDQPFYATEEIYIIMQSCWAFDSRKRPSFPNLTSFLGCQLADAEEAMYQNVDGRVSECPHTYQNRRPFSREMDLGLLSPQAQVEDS

MOLT-4 = test: Cytotoxicity against human MOLT4 cells after 48 hrs by sulforhodamine B assay; assay type: cell-based; details: molt-4, 48 h
U-251 = test: Cytotoxicity against human U251 cells after 48 hrs by sulforhodamine B assay; assay type: cell-based; details: u-251, 48 h
[4] = system: Tyrosine-protein kinase ABL1 (Homo sapiens), P00519 [F317L]; test: Binding affinity to human phosphorylated ABL1 F317L mutant at 10 uM incubated for 1 hr by kinase binding assay relative to untreated control
Sequence of Tyrosine-protein kinase ABL1 (Homo sapiens), P00519 [F317L] (P00519 whole entry F317L): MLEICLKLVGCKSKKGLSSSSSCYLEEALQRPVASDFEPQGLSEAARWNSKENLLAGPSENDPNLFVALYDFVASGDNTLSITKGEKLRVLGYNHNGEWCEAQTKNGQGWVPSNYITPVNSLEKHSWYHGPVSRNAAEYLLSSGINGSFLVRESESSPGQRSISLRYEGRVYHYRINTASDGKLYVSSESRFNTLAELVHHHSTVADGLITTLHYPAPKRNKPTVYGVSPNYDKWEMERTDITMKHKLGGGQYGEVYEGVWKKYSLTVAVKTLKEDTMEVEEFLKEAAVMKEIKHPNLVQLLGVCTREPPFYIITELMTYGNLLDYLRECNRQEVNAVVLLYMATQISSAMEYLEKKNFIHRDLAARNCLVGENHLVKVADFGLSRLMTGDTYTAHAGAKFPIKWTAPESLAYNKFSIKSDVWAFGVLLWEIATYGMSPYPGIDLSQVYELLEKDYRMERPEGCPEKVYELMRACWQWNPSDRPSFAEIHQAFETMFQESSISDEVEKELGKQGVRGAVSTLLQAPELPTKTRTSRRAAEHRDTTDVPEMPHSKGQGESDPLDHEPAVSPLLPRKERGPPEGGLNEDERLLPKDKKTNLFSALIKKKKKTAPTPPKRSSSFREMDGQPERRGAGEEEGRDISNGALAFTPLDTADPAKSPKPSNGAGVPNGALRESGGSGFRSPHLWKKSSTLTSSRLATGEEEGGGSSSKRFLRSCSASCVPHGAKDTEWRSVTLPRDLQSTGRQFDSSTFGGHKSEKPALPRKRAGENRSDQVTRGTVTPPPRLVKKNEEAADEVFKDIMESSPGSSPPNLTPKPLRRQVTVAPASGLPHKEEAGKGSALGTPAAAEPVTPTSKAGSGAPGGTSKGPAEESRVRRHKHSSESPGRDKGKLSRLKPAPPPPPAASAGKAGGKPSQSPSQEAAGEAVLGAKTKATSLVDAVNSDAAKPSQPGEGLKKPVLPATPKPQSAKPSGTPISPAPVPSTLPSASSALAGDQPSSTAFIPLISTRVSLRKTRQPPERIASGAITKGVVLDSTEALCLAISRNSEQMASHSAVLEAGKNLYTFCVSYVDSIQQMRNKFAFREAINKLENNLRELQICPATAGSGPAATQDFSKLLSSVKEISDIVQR

[5] = system: Tyrosine-protein kinase ABL1 (Homo sapiens), P00519 [F317I]; test: Binding affinity to human phosphorylated ABL1 F317I mutant at 10 uM incubated for 1 hr by kinase binding assay relative to untreated control
Sequence of Tyrosine-protein kinase ABL1 (Homo sapiens), P00519 [F317I] (P00519 whole entry F317I): as the sequence (P00519 whole entry F317L) above, with L317I counted along it

[6] = biological target: Tyrosine-protein kinase ABL1 (Homo sapiens) (UniProt P00519); test: Inhibition of human ABL using gamma-33P-ATP as substrate assessed as enzyme functional activity at 1 uM by scintillation counting relative to untreated control; parameters: scale not given: the % may be the effect or the level left
Sequence of Tyrosine-protein kinase ABL1 (Homo sapiens) (P00519 whole entry): as the sequence (P00519 whole entry F317L) above, with L317F counted along it

SNB-75 [7] = test: Cytotoxicity against human SNB75 cells after 48 hrs by sulforhodamine B assay; assay type: cell-based; details: snb-75, 48 h
A498 = test: Cytotoxicity against human A498 cells after 48 hrs by sulforhodamine B assay; assay type: cell-based; details: a498, 48 h
DU-145 = test: Growth inhibition of human DU145 cells after 48 hrs by sulforhodamine B assay; assay type: functional; details: DU-145, 48 h
RXF 393 = test: Growth inhibition of human RXF393 cells after 48 hrs by sulforhodamine B assay; assay type: functional; details: RXF 393, 48 h
Malme-3M = test: Cytotoxicity against human MALME-3M cells after 48 hrs by sulforhodamine B assay; assay type: cell-based
NCI-H522 = test: Cytotoxicity against human NCI-H522 cells after 48 hrs by sulforhodamine B assay; assay type: cell-based; details: nci-h522, 48 h
NCI-H226 = test: Cytotoxicity against human NCI-H226 cells after 48 hrs by sulforhodamine B assay; assay type: cell-based; details: nci-h226, 48 h
[8] = biological target: Casein kinase I isoform alpha (Homo sapiens) (UniProt P48729); test: Binding affinity to human CSNK1A1 at 10 uM incubated for 1 hr by kinase binding assay relative to untreated control
Sequence of Casein kinase I isoform alpha (Homo sapiens) (P48729 2-337 limits assumed): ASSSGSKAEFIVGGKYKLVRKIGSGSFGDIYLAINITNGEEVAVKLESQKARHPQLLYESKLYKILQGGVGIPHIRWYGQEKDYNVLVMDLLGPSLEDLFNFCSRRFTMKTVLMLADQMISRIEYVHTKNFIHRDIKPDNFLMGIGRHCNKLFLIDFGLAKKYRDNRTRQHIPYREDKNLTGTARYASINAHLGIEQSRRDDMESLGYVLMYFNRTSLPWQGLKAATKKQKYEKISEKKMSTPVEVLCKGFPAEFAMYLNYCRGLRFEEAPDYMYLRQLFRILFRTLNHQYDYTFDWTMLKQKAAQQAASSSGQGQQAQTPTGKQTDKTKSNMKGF

UO-31 = test: Cytotoxicity against human UO31 cells after 48 hrs by sulforhodamine B assay; assay type: cell-based; details: uo-31, 48 h
OVCAR-4 = test: Cytotoxicity against human OVCAR4 cells after 48 hrs by sulforhodamine B assay; assay type: cell-based; details: ovcar-4, 48 h
[9] = biological target: Receptor-type tyrosine-protein kinase FLT3 (Homo sapiens) (UniProt P36888); test: Inhibition of human FLT3 using gamma-33P-ATP as substrate assessed as enzyme functional activity at 1 uM by scintillation counting relative to untreated control; parameters: scale not given: the % may be the effect or the level left
NCI/ADR-RES [10] = test: Cytotoxicity against human NCI/ADR-RES cells after 48 hrs by sulforhodamine B assay; assay type: cell-based
[11] = biological target: Platelet-derived growth factor receptor beta (Homo sapiens) (UniProt P09619); test: Binding affinity to human PDGFRB at 10 uM incubated for 1 hr by kinase binding assay relative to untreated control
Sequence of Platelet-derived growth factor receptor beta (Homo sapiens) (P09619 whole entry): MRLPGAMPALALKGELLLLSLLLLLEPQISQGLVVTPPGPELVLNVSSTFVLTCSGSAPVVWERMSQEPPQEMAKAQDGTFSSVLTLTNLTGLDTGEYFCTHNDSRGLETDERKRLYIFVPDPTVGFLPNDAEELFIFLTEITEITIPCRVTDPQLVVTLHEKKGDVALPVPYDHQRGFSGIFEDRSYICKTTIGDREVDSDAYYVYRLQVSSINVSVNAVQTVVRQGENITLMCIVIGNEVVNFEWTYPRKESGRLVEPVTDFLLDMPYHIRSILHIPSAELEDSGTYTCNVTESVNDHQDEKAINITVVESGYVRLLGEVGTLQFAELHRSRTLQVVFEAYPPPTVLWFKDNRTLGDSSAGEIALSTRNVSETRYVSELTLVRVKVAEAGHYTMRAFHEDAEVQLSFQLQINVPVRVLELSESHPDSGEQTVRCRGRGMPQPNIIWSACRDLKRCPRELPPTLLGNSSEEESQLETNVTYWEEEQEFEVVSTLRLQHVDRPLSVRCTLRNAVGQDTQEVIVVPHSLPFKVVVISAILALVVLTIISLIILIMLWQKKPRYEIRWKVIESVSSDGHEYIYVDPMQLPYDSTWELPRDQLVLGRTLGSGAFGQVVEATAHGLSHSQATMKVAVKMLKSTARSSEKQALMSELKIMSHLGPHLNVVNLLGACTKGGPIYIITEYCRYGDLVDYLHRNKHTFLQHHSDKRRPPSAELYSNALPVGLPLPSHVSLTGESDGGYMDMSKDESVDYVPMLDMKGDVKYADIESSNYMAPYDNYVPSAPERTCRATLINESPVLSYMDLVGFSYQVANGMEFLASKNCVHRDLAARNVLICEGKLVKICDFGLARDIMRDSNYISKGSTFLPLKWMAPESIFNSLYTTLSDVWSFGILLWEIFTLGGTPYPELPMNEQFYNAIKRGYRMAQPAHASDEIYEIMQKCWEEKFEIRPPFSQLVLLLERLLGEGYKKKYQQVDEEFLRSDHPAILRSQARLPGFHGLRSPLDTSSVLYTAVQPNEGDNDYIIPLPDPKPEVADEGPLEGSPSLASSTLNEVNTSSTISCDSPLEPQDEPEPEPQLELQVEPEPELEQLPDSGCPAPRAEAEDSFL

MDA-MB-231 = test: Growth inhibition of human MDA-MB-231 cells after 48 hrs by sulforhodamine B assay; assay type: functional; details: MDA-MB-231, 48 h
NCI-H322M = test: Growth inhibition of human NCI-H322M cells after 48 hrs by sulforhodamine B assay; assay type: functional
T47D = test: Cytotoxicity against human T47D cells after 48 hrs by sulforhodamine B assay; assay type: cell-based
[12] = biological target: Mitogen-activated protein kinase 1 (Homo sapiens) (UniProt P28482); test: Inhibition of human MAPK1 using gamma-33P-ATP as substrate assessed as enzyme functional activity at 1 uM by scintillation counting relative to untreated control; parameters: scale not given: the % may be the effect or the level left
Sequence of Mitogen-activated protein kinase 1 (Homo sapiens) (P28482 whole entry): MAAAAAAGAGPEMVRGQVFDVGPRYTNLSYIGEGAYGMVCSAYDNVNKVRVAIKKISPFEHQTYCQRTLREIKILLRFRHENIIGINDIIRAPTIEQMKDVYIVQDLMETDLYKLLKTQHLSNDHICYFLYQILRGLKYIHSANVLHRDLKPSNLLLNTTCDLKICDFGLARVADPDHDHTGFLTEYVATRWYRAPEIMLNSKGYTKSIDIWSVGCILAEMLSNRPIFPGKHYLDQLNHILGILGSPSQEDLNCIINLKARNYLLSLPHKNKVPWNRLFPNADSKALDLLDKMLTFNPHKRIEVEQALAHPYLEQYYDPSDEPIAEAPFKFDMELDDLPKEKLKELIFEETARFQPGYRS

[13] = biological target: Cyclin-dependent kinase 8 (Homo sapiens) (UniProt P49336); test: Binding affinity to human CDK8 at 10 uM incubated for 1 hr by kinase binding assay relative to untreated control
Sequence of Cyclin-dependent kinase 8 (Homo sapiens) (P49336 whole entry): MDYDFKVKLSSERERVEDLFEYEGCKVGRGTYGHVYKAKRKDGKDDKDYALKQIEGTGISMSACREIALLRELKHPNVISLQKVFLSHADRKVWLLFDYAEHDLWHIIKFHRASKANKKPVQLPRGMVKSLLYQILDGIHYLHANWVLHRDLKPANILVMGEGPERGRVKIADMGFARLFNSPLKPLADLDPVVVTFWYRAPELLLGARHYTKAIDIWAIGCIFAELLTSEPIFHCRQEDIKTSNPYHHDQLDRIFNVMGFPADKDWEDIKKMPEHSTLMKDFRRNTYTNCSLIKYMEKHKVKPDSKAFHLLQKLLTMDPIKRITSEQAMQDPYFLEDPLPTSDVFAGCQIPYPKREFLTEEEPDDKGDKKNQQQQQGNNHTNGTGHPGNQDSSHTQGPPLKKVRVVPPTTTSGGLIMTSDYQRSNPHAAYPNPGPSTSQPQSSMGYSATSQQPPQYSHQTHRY

NCI/ADR-RES [14] = test: Growth inhibition of human NCI/ADR-RES cells after 48 hrs by sulforhodamine B assay; assay type: functional

Row | SMILES | LC50 (TK-10) | LC50 (OVCAR-8) | TGI (SNB-75 [1]) | Activity [2] | LC50 (SW-620) | Activity [3] | LC50 (MOLT-4) | LC50 (U-251) | Activity [4] | Activity [5] | Activity [6] | LC50 (SNB-75 [7]) | LC50 (A498) | TGI (DU-145) | TGI (RXF 393) | LC50 (Malme-3M) | LC50 (NCI-H522) | LC50 (NCI-H226) | Activity [8] | LC50 (UO-31) | also measured
1 | c1ccc(Cc2cnc(N3CCN(c4ncnc5ccccc45)CC3)nc2)cc1 | > 100 µM | 71.3 µM | 78.2 µM | 49% | 59.9 µM | 4% | > 100 µM | 54.1 µM | > 50% | 30% | 92% | > 100 µM | 50.1 µM | 30.7 µM | 57.9 µM | 89.2 µM | > 100 µM | > 100 µM | > 50% | > 100 µM | LC50 (OVCAR-4): > 100 µM; Activity [9]: 74%; LC50 (NCI/ADR-RES [10]): 66.4 µM; Activity [11]: 4.1%; TGI (MDA-MB-231): 38.1 µM; TGI (NCI-H322M): > 100 µM; LC50 (T47D): > 100 µM; Activity [12]: 100%; Activity [13]: 3.4%; TGI (NCI/ADR-RES [14]): 17.6 µM
2 | CCc1cnc(N2CCN(C(=O)c3ccc(CNc4ncnc5ccccc45)cc3)CC2)nc1 | > 100 µM | > 100 µM | 58.2 µM | > 50% | > 100 µM | > 50% | > 100 µM | > 100 µM | 6.8% | > 50% | 80% | > 100 µM | > 100 µM | > 100 µM | 41.6 µM | > 100 µM | > 100 µM | > 100 µM | 36% | > 100 µM | LC50 (OVCAR-4): > 100 µM; Activity [9]: 80%; LC50 (NCI/ADR-RES [10]): > 100 µM; Activity [11]: > 50%; TGI (MDA-MB-231): 84.9 µM; TGI (NCI-H322M): > 100 µM; LC50 (T47D): > 100 µM; Activity [12]: 100%; Activity [13]: > 50%; TGI (NCI/ADR-RES [14]): 21.5 µM
3 | O=C(c1cccc(Nc2ncnc3ccccc23)c1)N1CCN(c2ncc(Cc3ccccc3)cn2)CC1 | 39.81 µM | > 100 µM | 5.89 µM | > 50% | > 100 µM | > 50% | > 100 µM | > 100 µM | > 50% | 20% | 87% | > 100 µM | > 100 µM | 6.46 µM | 11.5 µM | 5.25 µM | 5.13 µM | 7.94 µM | > 50% | 4.37 µM | LC50 (OVCAR-4): 7.59 µM; Activity [9]: 95%; LC50 (NCI/ADR-RES [10]): > 100 µM; Activity [11]: > 50%; TGI (MDA-MB-231): 2.95 µM; TGI (NCI-H322M): 4.79 µM; LC50 (T47D): 5.62 µM; Activity [12]: 73%; Activity [13]: > 50%; TGI (NCI/ADR-RES [14]): 8.51 µM
